Test results taken from patent publication EP4790066A1, “GLP-1R/GIPR/GCGR TRIPLE AGONIST ANALOGUE AND USE THEREOF” (Shenzhen Bay Laboratory, priority 2023, dated 2025).
*1 amine or outer side, *2 acyl side, *3 side chain or, on linkers, in order; H or OH if unused. Where a SMILES comes first, the peptide text is derived from it. Bridges are numbered along the chain shown (N, C = ends). [ ]: non-standard residue; d: D form. X1 = O=C(O)CCCCCCCCCCCCCCCCCCC(=O)N[C@@H](CCCCNC(=O)COCCOCCNC(=O)COCCOCCNC(=O)CCC(=O)N(CCNC(=O)C[*:1])CCNC(=O)C[*:2])C(=O)O; Phe(2-F) = N[C@@H](Cc1ccccc1F)C(=O)O; αMeK = C[C@](N)(CCCCN)C(=O)O; αMeS = C[C@](N)(CO)C(=O)O; Aib = CC(C)(N)C(=O)O

What was measured:
Type in all cases: cell-based
GLP-1R = biological target: T1, GLP-1R (Homo sapiens, UniProt P43220); assay: CreLuc method (CRE-luciferase reporter), HEK293/pGM-CREB-L-Luc/GLP-1R pool; details: 6 h incubation, read-out: EC50 (pM) for each receptor GLP-1R
T1 construct: expressed in transfected cells
Method: (§1) 1. Insulinotropic analogues can bind to the target receptor on the cell membrane, activate the cAMP response element (CRE), and initiate the expression of downstream luciferase. The expression level is positively correlated with the biological activity of the analogue being tested. After activation, luciferase substrate is added for chemiluminescence detection, and the luminescence intensity is determined to characterize the biological activity of the test compounds. Therefore, the target peptide derivatives (or polypeptide derivatives, i.e., TG1-TG94) prepared in Example 1 and Example 2 can be tested by the CreLuc method. The specific steps are as follows: The stably transfected cell lines HEK293/pGM-CREB-L-Luc/GLP-1R pool, HEK293/pGM-CREB-L-Luc/GIPR pool, and 293HEK/pGM-CREB-L-Luc/GCGR pool were constructed. […] The corresponding test cells were digested (1 min), dispersed by pipetting, and centrifuged (1000 rpm, 5 min). The culture medium was discarded, and the cells were resuspended in freestyle medium, centrifuged again, collected, and counted. The cells were then diluted to a cell density of 5 x 10^5 cells/mL and then added to the detection wells of a 384-well plate (40 µL/20,000 cells/well). Echo was used to add the corresponding analyte dilution series. The cell plate was incubated at 37°C and 5% CO2 for 6 h, then ONE-GLO (20 µL/well) was added for detection. It was kept in the dark for 3 min, then a chemiluminescent microplate reader was used for determination. The plate was read within 30 min, and the determination results were recorded. […] Table 3: EC50 values for target peptide derivatives

GIPR = biological target: T2, GIPR (Homo sapiens, UniProt P48546); assay: CreLuc method (CRE-luciferase reporter), HEK293/pGM-CREB-L-Luc/GIPR pool; details: 6 h incubation, read-out: EC50 (pM) for each receptor GIPR
T2 construct: expressed in transfected cells
T2 sequence (P48546 22-466): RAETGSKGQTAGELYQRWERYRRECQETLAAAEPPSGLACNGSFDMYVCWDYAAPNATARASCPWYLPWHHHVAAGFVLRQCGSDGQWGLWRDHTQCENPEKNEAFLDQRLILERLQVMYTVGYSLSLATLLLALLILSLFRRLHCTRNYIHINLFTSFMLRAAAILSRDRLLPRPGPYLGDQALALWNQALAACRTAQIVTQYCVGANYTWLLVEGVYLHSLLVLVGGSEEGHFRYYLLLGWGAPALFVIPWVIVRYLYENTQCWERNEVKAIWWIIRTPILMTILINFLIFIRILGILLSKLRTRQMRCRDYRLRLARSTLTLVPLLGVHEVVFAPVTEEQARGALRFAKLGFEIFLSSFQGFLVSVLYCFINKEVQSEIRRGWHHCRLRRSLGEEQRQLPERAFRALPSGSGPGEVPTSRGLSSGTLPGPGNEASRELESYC
Method: as §1

GCGR = biological target: T3, GCGR (Homo sapiens, UniProt P47871); assay: CreLuc method (CRE-luciferase reporter), 293HEK/pGM-CREB-L-Luc/GCGR pool; details: 6 h incubation, read-out: EC50 (pM) for each receptor GCGR
T3 construct: expressed in transfected cells
Method: as §1

T1 sequence (P43220 24-463, species assumed): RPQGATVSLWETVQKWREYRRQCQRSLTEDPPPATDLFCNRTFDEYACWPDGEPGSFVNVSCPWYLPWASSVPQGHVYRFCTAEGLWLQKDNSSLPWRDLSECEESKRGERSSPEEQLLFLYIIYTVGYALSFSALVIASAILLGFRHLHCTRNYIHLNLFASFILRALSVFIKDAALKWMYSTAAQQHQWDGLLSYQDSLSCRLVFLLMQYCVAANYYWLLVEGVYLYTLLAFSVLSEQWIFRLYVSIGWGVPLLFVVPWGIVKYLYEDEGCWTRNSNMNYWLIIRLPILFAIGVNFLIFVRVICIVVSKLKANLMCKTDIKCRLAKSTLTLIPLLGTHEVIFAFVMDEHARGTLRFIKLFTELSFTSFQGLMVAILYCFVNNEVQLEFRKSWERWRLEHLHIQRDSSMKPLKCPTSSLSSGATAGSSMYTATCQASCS
T3 sequence (P47871 26-477, species assumed): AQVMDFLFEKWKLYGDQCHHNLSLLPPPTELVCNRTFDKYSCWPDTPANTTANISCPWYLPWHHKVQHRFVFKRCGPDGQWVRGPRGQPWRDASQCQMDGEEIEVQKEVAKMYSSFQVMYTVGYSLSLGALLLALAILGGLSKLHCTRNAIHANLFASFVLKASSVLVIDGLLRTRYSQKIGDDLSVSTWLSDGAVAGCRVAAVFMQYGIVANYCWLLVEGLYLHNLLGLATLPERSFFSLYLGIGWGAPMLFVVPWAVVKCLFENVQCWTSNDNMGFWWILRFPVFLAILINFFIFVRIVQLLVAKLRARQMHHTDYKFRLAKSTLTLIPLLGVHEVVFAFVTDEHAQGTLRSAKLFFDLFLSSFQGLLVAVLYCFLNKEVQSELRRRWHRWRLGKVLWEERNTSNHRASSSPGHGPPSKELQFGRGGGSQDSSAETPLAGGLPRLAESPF

CC(=O)NCCCC[C@H](NC(=O)[C@H](CCC(=O)O)NC(=O)[C@H](CC(C)C)NC(=O)[C@H](Cc1ccc(O)cc1)NC(=O)[C@H](CCCCN)NC(=O)[C@H](CO)NC(=O)[C@H](Cc1ccc(O)cc1)NC(=O)[C@H](CC(=O)O)NC(=O)[C@H](CO)NC(=O)[C@@H](NC(=O)[C@H](Cc1ccccc1)NC(=O)[C@@H](NC(=O)CNC(=O)[C@H](Cc1c[nH]cn1)NC(=O)C(C)(C)NC(=O)[C@@H](N)Cc1c[nH]cn1)[C@@H](C)O)[C@@H](C)O)C(=O)N[C@@H](CCCCN)C(=O)N[C@@H](Cc1ccc(O)cc1)C(=O)N[C@@H](C)C(=O)NC(C)(C)C(=O)N[C@H]1CSCC(=O)NCCN(C(=O)CCC(=O)NCCOCCOCC(=O)NCCOCCOCC(=O)NCCCC[C@H](NC(=O)CCCCCCCCCCCCCCCCCCC(=O)O)C(=O)O)CCNC(=O)CSC[C@@H](C(=O)NCC(=O)NCC(=O)N2CCC[C@H]2C(=O)N[C@@H](CO)C(=O)N[C@@H](CO)C(=O)NCC(=O)N[C@@H](C)C(=O)N2CCC[C@H]2C(=O)N2CCC[C@H]2C(=O)N2CCC[C@H]2C(=O)N[C@@H](CO)C(N)=O)NC(=O)[C@H](CC(C)C)NC(=O)[C@H](CC(C)C)NC(=O)[C@H](Cc2c[nH]c3ccccc23)NC(=O)[C@H](CCC(N)=O)NC(=O)[C@H](C(C)C)NC(=O)[C@H](Cc2ccccc2)NC1=O [TG14] (H-H[Aib]HGTFTSDYSKYLEK(Ac)KYA[Aib]CFVQWLLCGGPSSGAPPPS-NH2; linker 21-28 via X1)
EC50 (GLP-1R): 311 pM
EC50 (GIPR): 752 pM
EC50 (GCGR): 277 pM

CC[C@H](C)[C@@H]1NC(=O)[C@H](Cc2ccccc2)NC(=O)[C@@H](NC(=O)C(C)(C)NC(=O)[C@H](CCC(N)=O)NC(=O)[C@H](C)NC(=O)[C@H](CCCCNC(C)=O)NC(=O)[C@H](CCCCN)NC(=O)[C@H](CC(=O)O)NC(=O)[C@H](CC(C)C)NC(=O)[C@](C)(CC(C)C)NC(=O)[C@@H](NC(=O)[C@H](CO)NC(=O)[C@H](Cc2ccc(O)cc2)NC(=O)[C@H](CC(=O)O)NC(=O)[C@H](CO)NC(=O)[C@@H](NC(=O)[C@](C)(Cc2ccccc2)NC(=O)[C@@H](NC(=O)CNC(=O)[C@H](CCC(N)=O)NC(=O)C(C)(C)NC(=O)[C@@H](N)Cc2ccc(O)cc2)[C@@H](C)O)[C@@H](C)O)[C@@H](C)CC)CSCC(=O)NCCN(C(=O)CCC(=O)NCCOCCOCC(=O)NCCOCCOCC(=O)NCCCC[C@H](NC(=O)CCCCCCCCCCCCCCCCCCC(=O)O)C(=O)O)CCNC(=O)CSC[C@@H](C(=O)NCC(=O)NCC(=O)N2CCC[C@H]2C(=O)N[C@@H](CO)C(=O)N[C@@H](CO)C(=O)NCC(=O)N[C@@H](C)C(=O)N2CCC[C@H]2C(=O)N2CCC[C@H]2C(=O)N2CCC[C@H]2C(=O)N[C@@H](CO)C(N)=O)NC(=O)[C@H](CC(C)C)NC(=O)[C@H](CC(C)C)NC(=O)[C@H](Cc2ccc(O)cc2)NC(=O)[C@H](CCC(=O)O)NC1=O [TG23]
EC50 (GLP-1R): 92.9 pM
EC50 (GIPR): 75.6 pM
EC50 (GCGR): 109 pM

CC[C@H](C)[C@@H]1NC(=O)[C@H](Cc2ccccc2)NC(=O)[C@@H](NC(=O)[C@H](CCC(N)=O)NC(=O)[C@H](CCC(N)=O)NC(=O)[C@H](C)NC(=O)[C@H](CCCCNC(C)=O)NC(=O)[C@](C)(CCCCN)NC(=O)[C@H](CC(=O)O)NC(=O)[C@H](CC(C)C)NC(=O)[C@H](CC(C)C)NC(=O)[C@@H](NC(=O)[C@](C)(CO)NC(=O)[C@H](Cc2ccc(O)cc2)NC(=O)[C@H](CC(=O)O)NC(=O)[C@H](CO)NC(=O)[C@@H](NC(=O)[C@H](Cc2ccccc2F)NC(=O)[C@@H](NC(=O)CNC(=O)[C@H](CCC(N)=O)NC(=O)C(C)(C)NC(=O)[C@@H](N)Cc2ccc(O)cc2)[C@@H](C)O)[C@@H](C)O)[C@@H](C)CC)CSCC(=O)NCCN(C(=O)CCC(=O)NCCOCCOCC(=O)NCCOCCOCC(=O)NCCCC[C@H](NC(=O)CCCCCCCCCCCCCCCCCCC(=O)O)C(=O)O)CCNC(=O)CSC[C@@H](C(=O)NCC(=O)NCC(=O)N2CCC[C@H]2C(=O)N[C@@H](CO)C(=O)N[C@@H](CO)C(=O)NCC(=O)N[C@@H](C)C(=O)N2CCC[C@H]2C(=O)N2CCC[C@H]2C(=O)N2CCC[C@H]2C(=O)N[C@@H](CO)C(N)=O)NC(=O)[C@H](CC(C)C)NC(=O)[C@H](CC(C)C)NC(=O)[C@H](Cc2ccc(O)cc2)NC(=O)[C@H](CCC(=O)O)NC1=O [TG56] (H-Y[Aib]QGT[Phe(2-F)]TSDY[αMeS]ILLD[αMeK]K(Ac)AQQCFIEYLLCGGPSSGAPPPS-NH2; linker 21-28 via X1)
EC50 (GLP-1R): 197 pM
EC50 (GIPR): 39.5 pM
EC50 (GCGR): 681 pM

CC[C@H](C)[C@@H]1NC(=O)[C@H](Cc2ccccc2)NC(=O)[C@@H](NC(=O)C(C)(C)NC(=O)[C@H](CCC(N)=O)NC(=O)[C@H](C)NC(=O)[C@H](CCCCNC(C)=O)NC(=O)[C@H](CCCCN)NC(=O)[C@H](CC(=O)O)NC(=O)[C@H](CC(C)C)NC(=O)[C@](C)(CC(C)C)NC(=O)[C@@H](NC(=O)[C@H](CO)NC(=O)[C@H](Cc2ccncc2)NC(=O)[C@H](CC(=O)O)NC(=O)[C@H](CO)NC(=O)[C@@H](NC(=O)[C@H](Cc2ccccc2)NC(=O)[C@@H](NC(=O)CNC(=O)[C@H](CCC(N)=O)NC(=O)C(C)(C)NC(=O)[C@@H](N)Cc2ccc(O)cc2)[C@@H](C)O)[C@@H](C)O)[C@@H](C)CC)CSCC(=O)NCCN(C(=O)CCC(=O)NCCOCCOCC(=O)NCCOCCOCC(=O)NCCCC[C@H](NC(=O)CCCCCCCCCCCCCCCCCCC(=O)O)C(=O)O)CCNC(=O)CSC[C@@H](C(=O)NCC(=O)NCC(=O)N2CCC[C@H]2C(=O)N[C@@H](CO)C(=O)N[C@@H](CO)C(=O)NCC(=O)N[C@@H](C)C(=O)N2CCC[C@H]2C(=O)N2CCC[C@H]2C(=O)N2CCC[C@H]2C(=O)N[C@@H](CO)C(N)=O)NC(=O)[C@H](CC(C)C)NC(=O)[C@H](CC(C)C)NC(=O)[C@H](Cc2ccc(O)cc2)NC(=O)[C@H](CCC(=O)O)NC1=O [TG38]
EC50 (GLP-1R): 70.2 pM
EC50 (GIPR): 14.5 pM
EC50 (GCGR): 232 pM

CC[C@H](C)[C@@H]1NC(=O)[C@H](Cc2ccccc2)NC(=O)[C@@H](NC(=O)C(C)(C)NC(=O)[C@H](CCC(N)=O)NC(=O)[C@H](C)NC(=O)[C@H](CCCCNC(C)=O)NC(=O)[C@H](CCCCN)NC(=O)[C@H](CC(=O)O)NC(=O)[C@H](CC(C)C)NC(=O)[C@](C)(CC(C)C)NC(=O)[C@@H](NC(=O)[C@H](CO)NC(=O)[C@H](Cc2ccc(O)cc2)NC(=O)[C@H](CC(=O)O)NC(=O)[C@H](CO)NC(=O)[C@@H](NC(=O)[C@H](Cc2ccccc2)NC(=O)[C@@H](NC(=O)CNC(=O)[C@H](Cc2c[nH]cn2)NC(=O)C(C)(C)NC(=O)[C@@H](N)Cc2ccc(O)cc2)[C@@H](C)O)[C@@H](C)O)[C@@H](C)CC)CSCC(=O)NCCN(C(=O)CCC(=O)NCCOCCOCC(=O)NCCOCCOCC(=O)NCCCC[C@H](NC(=O)CCCCCCCCCCCCCCCCCCC(=O)O)C(=O)O)CCNC(=O)CSC[C@@H](C(=O)NCC(=O)NCC(=O)N2CCC[C@H]2C(=O)N[C@@H](CO)C(=O)N[C@@H](CO)C(=O)NCC(=O)N[C@@H](C)C(=O)N2CCC[C@H]2C(=O)N2CCC[C@H]2C(=O)N2CCC[C@H]2C(=O)N[C@@H](CO)C(N)=O)NC(=O)[C@H](CC(C)C)NC(=O)[C@H](CC(C)C)NC(=O)[C@H](Cc2ccc(O)cc2)NC(=O)[C@H](CCC(=O)O)NC1=O [TG42]
EC50 (GLP-1R): 477 pM
EC50 (GIPR): 21.3 pM
EC50 (GCGR): 99.4 pM

CC[C@H](C)[C@@H]1NC(=O)[C@H](Cc2ccccc2)NC(=O)[C@@H](NC(=O)C(C)(C)NC(=O)[C@H](CCC(N)=O)NC(=O)[C@H](C)NC(=O)[C@H](CCCCNC(C)=O)NC(=O)[C@H](CCCCN)NC(=O)[C@H](CC(=O)O)NC(=O)[C@H](CC(C)C)NC(=O)[C@](C)(CC(C)C)NC(=O)[C@@H](NC(=O)[C@H](CO)NC(=O)[C@H](Cc2ccc(O)cc2)NC(=O)[C@H](CC(=O)O)NC(=O)[C@H](CO)NC(=O)[C@@H](NC(=O)[C@H](Cc2ccccc2F)NC(=O)[C@@H](NC(=O)CNC(=O)[C@H](CCC(N)=O)NC(=O)C(C)(C)NC(=O)[C@@H](N)Cc2ccc(O)cc2)[C@@H](C)O)[C@@H](C)O)[C@@H](C)CC)CCCCNC(=O)CN(C(=O)CCCNC(=O)COCCOCCNC(=O)COCCOCCNC(=O)CC[C@H](NC(=O)CCCCCCCCCCCCCCCCCCC(=O)O)C(=O)O)CC(=O)NCCCC[C@@H](C(=O)NCC(=O)NCC(=O)N2CCC[C@H]2C(=O)N[C@@H](CO)C(=O)N[C@@H](CO)C(=O)NCC(=O)N[C@@H](C)C(=O)N2CCC[C@H]2C(=O)N2CCC[C@H]2C(=O)N2CCC[C@H]2C(=O)N[C@@H](CO)C(N)=O)NC(=O)[C@H](CC(C)C)NC(=O)[C@H](CC(C)C)NC(=O)[C@H](Cc2ccc(O)cc2)NC(=O)[C@H](CCC(=O)O)NC1=O [TG85]
EC50 (GLP-1R): 254 pM
EC50 (GIPR): 61.2 pM
EC50 (GCGR): 330 pM
